Measured values published in ChEMBL document CHEMBL1127805 (J Med Chem, 1994).

Tests used:
[1] = target: T1, Glutamate receptor ionotropic, NMDA 1 (Rattus norvegicus, UniProt P35439); test: Compound was evaluated for in vitro inhibition of spinal cord at NMDA receptor.
Glutamate NMDA receptor [2] = test: In vitro inhibition of [3H]glycine at NMDA receptor; format: protein-complex assay
Mus musculus [3] = test: In vivo antagonist activity against seizures elicited by audiogenic administered intra peritoneally in mice; format: functional
Mus musculus [4] = test: Antagonist activity in electroshock in vivo through intravenous route; format: functional
[5] = target: T1, Glutamate receptor ionotropic, NMDA 1; test: Compound was evaluated for in vitro inhibition of cortical slice at NMDA receptor
Mus musculus [6] = test: Compound was evaluated for audiogenic seizure in vivo through intra peritoneal route; format: functional
[7] = target: Glutamate [NMDA] receptor; test: Compound was evaluated for in vitro inhibition of myenteric plexus, guinea pig at NMDA receptor; format: protein-complex assay, Cavia porcellus
Rattus norvegicus [8] = test: Compound was evaluated for neuroprotection, rat MCAO in vivo through iv route; format: functional
Mus musculus [9] = test: In vivo antagonist activity against seizures elicited by audiogenic administered icv in mice; format: functional
[10] = target: T1, Glutamate receptor ionotropic, NMDA 1; test: Compound was evaluated for in vitro inhibition of cortical neuron at NMDA receptor
Gerbillinae [11] = test: Compound was evaluated for neuroprotection, in gerbil seizure model in vivo through intraperitoneal route; format: functional
Glutamate NMDA receptor [12] = test: Compound was evaluated for in vitro inhibition of [3H]MK-801 at NMDA receptor; format: protein-complex assay
Rattus norvegicus [13] = test: Compound was evaluated for D-Ser-induced cGMP in vivo through ip route; format: functional
[14] = Compound was evaluated for harmaline-induced cGMP seizure in vivo through ip route; format: functional
Mus musculus [15] = test: In vivo antagonist activity against seizures elicited by NMDLA in mice administered intravenously; format: functional; conditions: iv
Mus musculus [16] = test: In vivo antagonist activity against seizures elicited by NMDA in mice administered perorally; format: functional; conditions: po
Mus musculus [17] = test: Antagonist activity in electroshock model in vivo through intravenous route; format: functional
Mus musculus [18] = test: Antagonist activity in PTZ seizure model in vivo through intravenous route; format: functional
Rattus norvegicus [19] = test: Antagonist activity for neuroprotection, in rat MCAO in vivo through intravenous bolus+infusion route
[20] = target: T1, Glutamate receptor ionotropic, NMDA 1; test: Compound was evaluated for in vitro inhibition of cGMP cerebellar slice at NMDA receptor.
Mus musculus [21] = test: In vivo antagonist activity against seizures elicited by audiogenic, administered intra peritoneally in mice; format: functional
Mus musculus [22] = test: In vivo antagonist activity against seizures elicited by audiogenic, administered perorally in mice; format: functional; conditions: po
[23] = target: T1, Glutamate receptor ionotropic, NMDA 1; test: Compound was evaluated for in vitro inhibition of [3H]L-689,560 at NMDA receptor.
[24] = target: T2, Glutamate receptor ionotropic, NMDA 2C (Rattus norvegicus, UniProt Q00961); test: Compound was evaluated for in vitro inhibition of cortical slice release at NMDA receptor.
[25] = target: T2, Glutamate receptor ionotropic, NMDA 2C; test: Compound was evaluated for in vitro inhibition of [3H]-GABA release at NMDA receptor.
Gerbillinae [26] = test: Compound was evaluated for neuroprotection, gerbil in vivo through ip route; format: functional
Mus musculus [27] = test: In vivo antagonist activity against seizures elicited by NMDLA in mice administered intraperitoneally; format: functional; conditions: ip
Mus musculus [28] = test: Antagonist activity in PCP hyperactivity seizure model in vivo through subcutaneous route; format: functional; conditions: sc
Mus musculus [29] = test: Antagonist activity in amphetamine hyperactivity seizure model in vivo through intraperitoneal route; format: functional; conditions: ip
Glutamate NMDA receptor [30] = test: Compound was evaluated for in vitro inhibition of [3H]TCP at NMDA receptor; format: protein-complex assay
Mus musculus [31] = test: In vivo antagonist activity against seizures elicited by NMDA in mice administered intraperitoneally; format: functional; conditions: ip
Mus musculus [32] = test: Antagonist activity in forced swim model, in vivo through intraperitoneal route; format: functional; conditions: ip
Mus musculus [33] = test: Antagonist activity in plus-maze in vivo through intraperitoneal route; format: functional; conditions: ip
Mus musculus [34] = test: Antagonist activity in audiogenic seizure model in vivo through icv route; format: functional
Mus musculus [35] = test: Separation-induced vocalization in vivo through ip route; format: functional
[36] = target: T1, Glutamate receptor ionotropic, NMDA 1; test: Compound was evaluated for in vitro inhibition of oocytes at NMDA receptor.; format: cell-based, frog; conditions: oocyte
Glutamate NMDA receptor [37] = test: Compound was evaluated for in vitro inhibition of [3H]-MK-801 at NMDA receptor.; format: protein-complex assay
Mus musculus [38] = test: Compound was evaluated for passive avoidance in vivo through intraperitoneal route; format: functional; conditions: ip
Mus musculus [39] = test: Compound was evaluated for elevation of cGMP in vivo through subcutaneous route; format: functional; conditions: sc
Mus musculus [40] = test: Compound was evaluated for nociception in electroshock mice model in vivo through ip route; format: functional

T2 sequence (Q00961 whole entry): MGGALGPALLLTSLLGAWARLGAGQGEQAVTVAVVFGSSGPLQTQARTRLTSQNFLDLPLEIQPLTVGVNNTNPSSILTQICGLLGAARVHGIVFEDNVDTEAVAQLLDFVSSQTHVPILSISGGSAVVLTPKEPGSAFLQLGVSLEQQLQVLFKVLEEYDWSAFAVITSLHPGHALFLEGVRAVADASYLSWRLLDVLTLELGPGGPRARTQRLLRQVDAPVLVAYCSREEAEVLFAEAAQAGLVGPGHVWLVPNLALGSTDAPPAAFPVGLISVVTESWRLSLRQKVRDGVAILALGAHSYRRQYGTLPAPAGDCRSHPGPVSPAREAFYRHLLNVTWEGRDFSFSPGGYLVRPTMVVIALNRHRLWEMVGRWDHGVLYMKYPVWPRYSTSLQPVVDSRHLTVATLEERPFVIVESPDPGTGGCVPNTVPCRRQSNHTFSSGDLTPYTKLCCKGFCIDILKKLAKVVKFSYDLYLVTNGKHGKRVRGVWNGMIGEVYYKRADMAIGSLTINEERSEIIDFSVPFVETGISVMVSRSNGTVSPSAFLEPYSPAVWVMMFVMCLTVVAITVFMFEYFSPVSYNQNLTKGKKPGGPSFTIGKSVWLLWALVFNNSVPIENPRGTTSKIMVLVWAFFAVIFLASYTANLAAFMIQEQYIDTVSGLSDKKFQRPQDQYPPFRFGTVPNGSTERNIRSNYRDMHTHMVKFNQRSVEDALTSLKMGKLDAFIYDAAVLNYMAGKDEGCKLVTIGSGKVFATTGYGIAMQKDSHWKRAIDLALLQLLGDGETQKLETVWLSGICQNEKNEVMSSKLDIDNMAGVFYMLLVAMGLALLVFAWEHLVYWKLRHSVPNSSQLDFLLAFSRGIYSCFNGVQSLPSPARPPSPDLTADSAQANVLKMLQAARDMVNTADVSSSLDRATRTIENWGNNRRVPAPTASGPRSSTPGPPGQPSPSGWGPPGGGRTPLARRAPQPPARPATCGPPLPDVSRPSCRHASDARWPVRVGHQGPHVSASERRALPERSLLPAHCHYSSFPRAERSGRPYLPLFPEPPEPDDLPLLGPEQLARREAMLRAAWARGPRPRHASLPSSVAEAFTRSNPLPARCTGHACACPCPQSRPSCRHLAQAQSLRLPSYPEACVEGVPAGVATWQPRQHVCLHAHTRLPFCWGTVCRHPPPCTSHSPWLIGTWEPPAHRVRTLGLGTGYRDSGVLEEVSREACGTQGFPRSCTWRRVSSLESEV

Oc1ccc(-c2c(O)nc3cc(Cl)cc(Cl)c3c2O)cc1
IC50 [1]: 2100 nM | IC50 (Glutamate NMDA receptor [2]): 11 nM

O=C(c1c(O)nc2cc(Cl)ccc2c1O)C1CC1
ED50 (Mus musculus [3]): 4.1 mg/kg

O=C(NS(=O)(=O)c1ccccc1)c1nc2cc(Cl)c(Cl)cc2[nH]c1=O
ED50 (Mus musculus [4]): > 100 mg/kg | IC50 [5]: 11 µM | IC50 (Glutamate NMDA receptor [2]): 120 nM

CC(CN(C)C)OC(=O)c1cc(O)c2c(Cl)cc(Cl)cc2n1 (configuration not stated)
ED50 (Mus musculus [6]): 62 mg/kg

O=C(O)c1nc2c(Cl)cc(Cl)cc2[nH]1
IC50 (Glutamate NMDA receptor [2]): 800 nM

O=C(O)c1cc(S)c2ccc(Cl)cc2n1
IC50 [7]: 5 µM | ED50 (Rattus norvegicus [8]): 20 mg/kg | IC50 (Glutamate NMDA receptor [2]): 400 nM

NCc1ccc(NC(=O)CCc2c(C(=O)O)[nH]c3cc(Cl)cc(Cl)c23)cc1
IC50 (Glutamate NMDA receptor [2]): 27 nM

NC(Cc1ccc(CC(=O)N[C@H]2C[C@H](C(=O)O)Nc3cc(Cl)cc(Cl)c32)cc1)C(=O)O (some centres not stated)
ED50 (Mus musculus [9]): 0.5 | ED50 (Mus musculus [3]): 29 mg/kg

N[C@H]1C(=O)N(O)C[C@H]1O
Ki [10]: 750 nM | IC50 (Glutamate NMDA receptor [2]): 1300 nM

O=c1[nH][nH]c(=O)c2c(O)c3c(Cl)cc(Cl)cc3nc12
MED50 (Gerbillinae [11]): 10 mg/kg | IC50 (Glutamate NMDA receptor [2]): 100 nM

CN(C(=O)c1ccccc1)c1c(C(=O)O)[nH]c2cc(Cl)ccc12
IC50 (Glutamate NMDA receptor [2]): 110 nM

NCc1ccc(CC(=O)N[C@H]2C[C@H](C(=O)O)Nc3cc(Cl)cc(Cl)c32)cc1
ED50 (Mus musculus [9]): 3.5 | ED50 (Mus musculus [3]): 39 mg/kg

COC(=O)[C@H]1C[C@H](NC(=O)Cc2ccc(CN)cc2)c2c(Cl)cc(Cl)cc2N1
ED50 (Mus musculus [3]): 32 mg/kg

N[C@H](/C=C/CCO)C(=O)O
EC50 (Glutamate NMDA receptor [12]): 330 nM | IC50 (Glutamate NMDA receptor [2]): 240 nM

O=C(O)Cc1c(C(=O)O)[nH]c2cc(Cl)ccc12
ED50 (Rattus norvegicus [13]): 5.4 µg | ED50 (Rattus norvegicus [13]; Rattus norvegicus, ip, read-out: ED50): > 50 mg/kg | IC50 (Glutamate NMDA receptor [2]): 960 nM

CCOC(=O)Cc1c(C(=O)O)[nH]c2cc(Cl)ccc12
MED50 [14]: 100 mg/kg | IC50 (Glutamate NMDA receptor [2]): 630 nM

C[C@@H]1CN(O)C(=O)[C@@H]1N
ED50 (Mus musculus [15]): 20 mg/kg | ED50 (Mus musculus [3]): 5.1 mg/kg | ED50 (Mus musculus [16]): 44 mg/kg | ED50 (Mus musculus [17]): 26 mg/kg | ED50 (Mus musculus [18]): 13 mg/kg | Ki [10]: 650 nM | IC50 (Glutamate NMDA receptor [2]): 1400 nM | ED50 (Rattus norvegicus [19]): 13.5 mg/kg

O=C(Nc1ccccc1)N[C@H]1C[C@H](C(=O)O)Nc2cc(Cl)cc(Cl)c21
ED50 (Mus musculus [3]): > 100 mg/kg | IC50 (Glutamate NMDA receptor [2]): 7.8 nM

O=C(O)CSc1c(C(=O)O)[nH]c2cc(Cl)cc(Cl)c12
EC50 [5]: 140 µM

O=C(O)CCc1c(C(=O)O)[nH]c2cc(Cl)cc(Cl)c12
ED50 (Mus musculus [9]): 0.09 µg | ED50 (Mus musculus [3]): 100 mg/kg | IC50 [20]: 2700 nM

O=c1[nH]c2cc(Cl)ccc2c(O)c1-c1cccc(Oc2ccccc2)c1
ED50 (Mus musculus [21]): 0.9 mg/kg | IC50 (Glutamate NMDA receptor [2]): […] | ED50 (Mus musculus [22]): 0.9 mg/kg

O=c1[nH]c2cc(Cl)ccc2c(O)c1-c1cccc(Oc2ccsc2)c1
ED50 (Mus musculus [21]): 0.8 mg/kg | IC50 (Glutamate NMDA receptor [2]): 1.4 nM | ED50 (Mus musculus [22]): 0.9 mg/kg

O=[N+]([O-])c1cc([N+](=O)[O-])c2nc(O)c(O)nc2c1
IC50 [23]: 170 nM | IC50 [24]: 400 nM | IC50 (Glutamate NMDA receptor [2]): 1000 nM | EC50 [25]: 400 nM

Oc1nc2cc(Cl)c(Cl)cc2n2ccnc12
IC50 (Glutamate NMDA receptor [2]): 6000 nM

O=c1[nH][nH]c(=O)c2c1[nH]c1cc(Cl)cc(Cl)c12
MED50 (Gerbillinae [26]): 10 mg/kg | IC50 (Glutamate NMDA receptor [2]): 410 nM

N[C@@H]1CCN(O)C1=O
ED50 (Mus musculus [27]): 890 mg/kg | ED50 (Mus musculus [21]): 53 mg/kg | ED50 (Mus musculus [28]): 30 mg/kg | ED50 (Mus musculus [29]): 30 mg/kg | Ki [10]: 2500 nM | IC50 (Glutamate NMDA receptor [2]): 12500 nM

NCC(=O)Nn1ccc2ccccc21
EC50 (Glutamate NMDA receptor [30]): 3.6 µM | IC50 (Glutamate NMDA receptor [30]): 780 µM | IC50 (Glutamate NMDA receptor [2]): 36000 nM

O=C1C2CC(CCN2)N1O (configuration not stated)
Ki [10]: 3500 nM | IC50 (Glutamate NMDA receptor [2]): 19000 nM

COC(=O)C1(N)CC1
ED50 (Mus musculus [31]): 46 mg/kg | ED50 (Mus musculus [32]): 100 mg/kg | ED50 (Mus musculus [33]): 200 mg/kg | IC50 (Glutamate NMDA receptor [2]): > 40000 nM

O=C(C[C@@H]1CCc2cc(Br)cc3[nH]c(=O)c(=O)n1c23)Nc1ccccc1
IC50 (Glutamate NMDA receptor [2]): 2.6 nM

O=c1cc(O)c2c(Cl)cc(Cl)cc2[nH]c1=O
IC50 (Glutamate NMDA receptor [2]): 31 nM

O=C(O)c1cc(O)c2c(Cl)cc(Cl)cc2n1
ED50 (Mus musculus [3]): > 250 mg/kg | ED50 (Mus musculus [34]): 7.5 nM | ED50 (Mus musculus [35]): 67 mg/kg

N[C@@H](/C=C/CCO)C(=O)O
EC50 (Glutamate NMDA receptor [12]): 930 nM | IC50 (Glutamate NMDA receptor [2]): 750 nM

O=C(O)C1Nc2cc(Cl)cc(Cl)c2S(=O)(=O)N1Cc1cccc(Br)c1 (configuration not stated)
IC50 (Glutamate NMDA receptor [2]): 8 nM

O=C(O)Cn1c(=O)c(=O)[nH]c2cc(Cl)c(Cl)cc21
IC50 (Glutamate NMDA receptor [2]): 110 nM

N#Cc1cc2c(cc1[N+](=O)[O-])=NC(=O)C(=O)N=2
IC50 (Glutamate NMDA receptor [2]): 4800 nM

NC1(C(=O)O)CCC1 [1-AMINOCYCLOBUTANE CARBOXYLIC ACID]
IC50 [36]: 18.5 µM | IC50 (Glutamate NMDA receptor [2]): 19000 nM

NC1(C(=O)O)CC1 [1-Aminocyclopropane carboxylic acid]
EC50 (Glutamate NMDA receptor [37]): 140 nM | IC50 (Glutamate NMDA receptor [2]): 40 nM

O=C(O)c1nc2cc(Cl)c(Cl)cc2nc1O [6,7-DICHLORO-3-HYDROXY-2-QUINOXALINECARBOXYLIC ACID]
IC50 (Glutamate NMDA receptor [2]): 460 nM

N[C@@H]1CONC1=O [CYCLOSERINE]
ED50 (Mus musculus [38]): 3 mg/kg | ED50 (Mus musculus [39]): 1.25 mg/kg

O=c1[nH]c2cc([N+](=O)[O-])c([N+](=O)[O-])cc2[nH]c1=O [DNQX]
IC50 (Glutamate NMDA receptor [2]): 1300 nM

O=c1[nH]c2cc(Cl)c(Cl)c([N+](=O)[O-])c2[nH]c1=O [LICOSTINEL]
ED50 (Mus musculus [40]): 5 mg/kg

O=C(O)c1cc(=O)c2ccccc2[nH]1 [TRANSTORINE]
ED50 (Mus musculus [3]): > 250 mg/kg | ED50 (Mus musculus [34]): 20 nM
